From patent publication US20260258064A1 (SIRONAX LTD., priority 2023, published 2026)

Target: T1, SARM1 (50-724) (Homo sapiens, UniProt Q6SZW1)
T1 construct: Purified SARM1 (50-724) with a final concentration of 2 nM was pre-incubated with a test compound
T1 sequence (Q6SZW1 50-724): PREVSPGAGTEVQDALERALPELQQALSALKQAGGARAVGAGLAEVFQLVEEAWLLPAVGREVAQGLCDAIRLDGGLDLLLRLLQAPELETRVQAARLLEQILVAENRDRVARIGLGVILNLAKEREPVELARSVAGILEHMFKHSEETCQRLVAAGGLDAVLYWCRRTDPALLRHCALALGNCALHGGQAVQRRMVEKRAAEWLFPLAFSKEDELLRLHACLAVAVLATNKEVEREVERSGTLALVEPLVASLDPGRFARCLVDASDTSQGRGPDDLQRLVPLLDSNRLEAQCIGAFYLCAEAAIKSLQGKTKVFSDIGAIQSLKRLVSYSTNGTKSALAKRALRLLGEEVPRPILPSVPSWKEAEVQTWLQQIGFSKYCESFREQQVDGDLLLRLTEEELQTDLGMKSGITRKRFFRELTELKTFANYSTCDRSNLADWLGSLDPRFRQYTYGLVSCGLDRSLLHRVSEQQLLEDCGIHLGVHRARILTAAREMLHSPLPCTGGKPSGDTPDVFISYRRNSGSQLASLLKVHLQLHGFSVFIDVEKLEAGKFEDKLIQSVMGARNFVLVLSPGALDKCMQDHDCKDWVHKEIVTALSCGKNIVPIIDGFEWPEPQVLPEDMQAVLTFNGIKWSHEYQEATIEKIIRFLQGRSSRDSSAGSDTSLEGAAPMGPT
Assay: SARM1 (50-724) enzymatic assay (LC-MS/MS)
Assay type: biochemical
Settings: Purified SARM1 (50-724) 2 nM, NMN as activator, NAD+ as substrate, 1 h at room temperature, read-out: IC50 (SARM1 inhibitory activity)
Outline: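 Human SARM1 (50-724), 2 nM, pre-incubated 15 min at room temperature with compound in Dulbecco's PBS. Reaction started with 200 µM NMN (activator) plus […] NAD^+ substrate, run 1 h at room temperature, quenched with 70% acetonitrile. Turnover quantified by LC-MS/MS; IC50 reported.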

SMILES	IC50 [nM]
CON(C)Cc1nnc(-c2nc3cc(C(F)(F)F)ccc3[nH]2)n1-c1cccc(F)c1Cl [Compound 382, N-((4-(2-chloro-3-fluorophenyl)-5-(5-(trifluoromethyl)-1H-benzo[d]imidazol-2-yl)-4H-1,2,4-triazol-3-yl)methyl)-N,O-dimethylhydroxylamine]	≤ 100
Fc1cccc(-n2c(Cn3ccnn3)nnc2-c2nc3cc(C(F)(F)F)ccc3[nH]2)c1Cl [Compound 383, 2-(5-((1H-1,2,3-triazol-1-yl)methyl)-4-(2-chloro-3-fluorophenyl)-4H-1,2,4-triazol-3-yl)-5-(trifluoromethyl)-1H-benzo[d]imidazole]	≤ 100
O=C1CCCN1Cc1nnc(-c2nc3cc(C(F)(F)F)ccc3[nH]2)n1-c1cccc(F)c1Cl [Compound 384, 1-((4-(2-chloro-3-fluorophenyl)-5-(5-(trifluoromethyl)-1H-benzo[d]imidazol-2-yl)-4H-1,2,4-triazol-3-yl)methyl)pyrrolidin-2-one]	500 to 1000
CS(=O)(=O)Cc1c(-c2nncn2-c2cnccc2C(F)(F)F)[nH]c2ccc(C(F)(F)F)cc12 [Compound 385, 3-(methylsulfonylmethyl)-5-(trifluoromethyl)-2-[4-[4-(trifluoromethyl)-3-pyridyl]-1,2,4-triazol-3-yl]-1H-indole]	≤ 100
FC(F)(F)c1ccc2[nH]c(-c3nncn3-c3cnccc3C(F)(F)F)c(-c3ccncc3)c2c1 [Compound 386, 3-(4-pyridyl)-5-(trifluoromethyl)-2-[4-[4-(trifluoromethyl)-3-pyridyl]-1,2,4-triazol-3-yl]-1H-indole]	≤ 100
FC(F)(F)c1ccc2[nH]c(-c3nncn3-c3cnccc3C(F)(F)F)c(-c3cccnc3)c2c1 [Compound 387, 3-(pyridin-3-yl)-5-(trifluoromethyl)-2-(4-(4-(trifluoromethyl)pyridin-3-yl)-4H-1,2,4-triazol-3-yl)-1H-indole]	≤ 100
CC(C)(O)Cc1nnc(-c2nc3cc(C(F)(F)F)ccc3[nH]2)n1-c1cccc(F)c1Cl [Compound 388, 1-(4-(2-chloro-3-fluorophenyl)-5-(5-(trifluoromethyl)-1H-benzo[d]imidazol-2-yl)-4H-1,2,4-triazol-3-yl)-2-methylpropan-2-ol]	≤ 100
Cn1cc(-c2cnccc2C(F)(F)F)c(-c2nc3cc(C(F)(F)F)c(Cl)cc3[nH]2)cc1=O [Compound 389, 4-(5-chloro-6-(trifluoromethyl)-1H-benzo[d]imidazol-2-yl)-1-methyl-4′-(trifluoromethyl)-[3,3′-bipyridin]-6(1H)-one]	100 to 500
FC(F)(F)c1ccc2[nH]c(-c3nncn3-c3cnccc3C(F)(F)F)c(-c3ccccn3)c2c1 [Compound 390, 3-(pyridin-2-yl)-5-(trifluoromethyl)-2-(4-(4-(trifluoromethyl)pyridin-3-yl)-4H-1,2,4-triazol-3-yl)-1H-indole]	≤ 100
Cc1cc(C(F)(F)F)c(-n2cnnc2-c2nc3cc(C(F)(F)F)ccc3[nH]2)nn1 [Compound 391, 2-(4-(6-methyl-4-(trifluoromethyl)pyridazin-3-yl)-4H-1,2,4-triazol-3-yl)-5-(trifluoromethyl)-1H-benzo[d]imidazole]	100 to 500
CP(C)(=O)c1cc(F)c2[nH]c(-c3nncn3-c3cnccc3C(F)(F)F)nc2c1 [Compound 392, 5-dimethylphosphoryl-7-fluoro-2-[4-[4-(trifluoromethyl)-3-pyridyl]-1,2,4-triazol-3-yl]-1H-benzimidazole]	100 to 500
Cn1cc(-c2cnccc2C(F)(F)F)c(-c2nc3c(Cl)c(Cl)ccc3[nH]2)cc1=O [Compound 393, 4-(4,5-dichloro-1H-benzo[d]imidazol-2-yl)-1-methyl-4′-(trifluoromethyl)-[3,3′-bipyridin]-6(1H)-one]	500 to 1000
[2H]c1nnc(-c2nc3c(F)c(C4([2H])CC4)cc(F)c3[nH]2)n1-c1cnccc1C(F)(F)F [Compound 394, 5-(cyclopropyl-1-d)-4,7-difluoro-2-(4-(4-(trifluoromethyl)pyridin-3-yl)-4H-1,2,4-triazol-3-yl-5-d)-1H-benzo[d]imidazole]	≤ 100
Nc1nnc(-c2nc3cc(C(F)(F)F)ccc3[nH]2)n1-c1cccc(F)c1Cl [Compound 396, 4-(2-chloro-3-fluorophenyl)-5-(5-(trifluoromethyl)-1H-benzo[d]imidazol-2-yl)-4H-1,2,4-triazol-3-amine]	≤ 100
NC(=O)c1cc(-c2nc3cc(C(F)(F)F)ccc3[nH]2)n(-c2cccc(F)c2Cl)n1 [Compound 397, 1-(2-chloro-3-fluorophenyl)-5-(5-(trifluoromethyl)-1H-benzo[d]imidazol-2-yl)-1H-pyrazole-3-carboxamide]	≤ 100
Fc1cccc(-n2c(CN3CC4(CCO4)C3)nnc2-c2nc3cc(C(F)(F)F)ccc3[nH]2)c1Cl [Compound 398, 6-((4-(2-chloro-3-fluorophenyl)-5-(6-(trifluoromethyl)-1H-benzo[d]imidazol-2-yl)-4H-1,2,4-triazol-3-yl)methyl)-1-oxa-6-azaspiro[3.3]heptane]	≤ 100
Cn1ncc(Cl)c1-c1ccnnc1-c1nc2cc(C(F)(F)F)ccc2[nH]1 [Compound 399, 2-(4-(4-chloro-1-methyl-1H-pyrazol-5-yl)pyridazin-3-yl)-5-(trifluoromethyl)-1H-benzo[d]imidazole]	≤ 100
Cc1cnn(-c2cc(F)c3[nH]c(-c4nncn4-c4cnccc4C(F)(F)F)nc3c2)c1 [Compound 400, 7-fluoro-5-(4-methyl-1H-pyrazol-1-yl)-2-(4-(4-(trifluoromethyl)pyridin-3-yl)-4H-1,2,4-triazol-3-yl)-1H-benzo[d]imidazole]	≤ 100
Cc1ccn(-c2cc(F)c3[nH]c(-c4nncn4-c4cnccc4C(F)(F)F)nc3c2)n1 [Compound 401, 7-fluoro-5-(3-methyl-1H-pyrazol-1-yl)-2-(4-(4-(trifluoromethyl)pyridin-3-yl)-4H-1,2,4-triazol-3-yl)-1H-benzo[d]imidazole]	≤ 100
COc1cc(-c2nc3cc(C(F)(F)F)ccc3[nH]2)c(-c2cccc(Cl)c2Cl)cn1 [Compound 402, 2-(5-(2,3-dichlorophenyl)-2-methoxypyridin-4-yl)-5-(trifluoromethyl)-1H-benzo[d]imidazole]	100 to 500
[2H]C([2H])([2H])N(c1cc(F)c2[nH]c(-c3nncn3-c3cnccc3C(F)(F)F)nc2c1)C([2H])([2H])[2H] [Compound 403, 7-fluoro-N,N-bis(methyl-d3)-2-(4-(4-(trifluoromethyl)pyridin-3-yl)-4H-1,2,4-triazol-3-yl)-1H-benzo[d]imidazol-5-amine]	≤ 100
COc1cc(-c2ccccc2Cl)c(-c2nc3cc(C(F)(F)F)ccc3[nH]2)nn1 [Compound 405, 2-(4-(2-chlorophenyl)-6-methoxypyridazin-3-yl)-5-(trifluoromethyl)-1H-benzo[d]imidazole]	100 to 500
Oc1cc(-c2ccccc2Cl)c(-c2nc3cc(C(F)(F)F)ccc3[nH]2)nn1 [Compound 406, 5-(2-chlorophenyl)-6-(5-(trifluoromethyl)-1H-benzo[d]imidazol-2-yl)pyridazin-3-ol]	100 to 500
FC(F)(F)c1ccc2[nH]c(-c3nnc(Cl)cc3-c3ccccc3Cl)nc2c1 [Compound 407, 2-(6-chloro-4-(2-chlorophenyl)pyridazin-3-yl)-5-(trifluoromethyl)-1H-benzo[d]imidazole]	≤ 100
Cc1cnc(-c2cc(F)c3[nH]c(-c4nncn4-c4cnccc4C(F)(F)F)nc3c2)s1 [Compound 409, 2-[7-fluoro-2-[4-[4-(trifluoromethyl)-3-pyridyl]-1,2,4-triazol-3-yl]-1H-benzimidazol-5-yl]-5-methyl-thiazole]	≤ 100
O=c1cc(-n2cnnc2-c2cc3cc(C(F)(F)F)cc(F)c3[nH]2)c(OC(F)(F)F)cn1CCO [Compound 410, 4-(3-(7-fluoro-5-(trifluoromethyl)-1H-indol-2-yl)-4H-1,2,4-triazol-4-yl)-1-(2-hydroxyethyl)-5-(trifluoromethoxy)pyridin-2(1H)-one]	≤ 100
OCCOc1cc(-n2cnnc2-c2cc3cc(C(F)(F)F)cc(F)c3[nH]2)c(OC(F)(F)F)cn1 [Compound 411, 2-((4-(3-(7-fluoro-5-(trifluoromethyl)-1H-indol-2-yl)-4H-1,2,4-triazol-4-yl)-5-(trifluoromethoxy)pyridin-2-yl)oxy)ethanol]	≤ 100
Fc1cc(C2CC23COC3)cc2nc(-c3nncn3-c3cnccc3C(F)(F)F)[nH]c12 (centres unmarked) [Compound 413, 7-fluoro-5-(5-oxaspiro[2.3]hexan-2-yl)-2-[4-[4-(trifluoromethyl)-3-pyridyl]-1,2,4-triazol-3-yl]-1H-benzimidazole]	≤ 100
Fc1cc(C2CC23CCOC3)cc2nc(-c3nncn3-c3cnccc3C(F)(F)F)[nH]c12 (centres unmarked) [Compound 414, 7-fluoro-5-(5-oxaspiro[2.4]heptan-2-yl)-2-[4-[4-(trifluoromethyl)-3-pyridyl]-1,2,4-triazol-3-yl]-1H-benzimidazole]	≤ 100
